Patent publication US11459312B2, “Sulphur substituted 3-oxo-2,3-dihydropyridazine-4-carboxamides” (Bayer Aktiengesellschaft, priority 2017, dated 2022)

Each compound was assayed against T1, AHR (Homo sapiens, UniProt P35869) (assay: In vitro assay 1: AHR-luc transactivation assay, antagonism in human cell line (U87 glioblastoma cells, kynurenic acid prestimulated)). Details: firefly luciferase DRE reporter, 150 μM kynurenic acid, 20 hours, read-out: Assay 1: AHR-luc Hum Antagonism IC50.
T1 sequence (P35869 11-848): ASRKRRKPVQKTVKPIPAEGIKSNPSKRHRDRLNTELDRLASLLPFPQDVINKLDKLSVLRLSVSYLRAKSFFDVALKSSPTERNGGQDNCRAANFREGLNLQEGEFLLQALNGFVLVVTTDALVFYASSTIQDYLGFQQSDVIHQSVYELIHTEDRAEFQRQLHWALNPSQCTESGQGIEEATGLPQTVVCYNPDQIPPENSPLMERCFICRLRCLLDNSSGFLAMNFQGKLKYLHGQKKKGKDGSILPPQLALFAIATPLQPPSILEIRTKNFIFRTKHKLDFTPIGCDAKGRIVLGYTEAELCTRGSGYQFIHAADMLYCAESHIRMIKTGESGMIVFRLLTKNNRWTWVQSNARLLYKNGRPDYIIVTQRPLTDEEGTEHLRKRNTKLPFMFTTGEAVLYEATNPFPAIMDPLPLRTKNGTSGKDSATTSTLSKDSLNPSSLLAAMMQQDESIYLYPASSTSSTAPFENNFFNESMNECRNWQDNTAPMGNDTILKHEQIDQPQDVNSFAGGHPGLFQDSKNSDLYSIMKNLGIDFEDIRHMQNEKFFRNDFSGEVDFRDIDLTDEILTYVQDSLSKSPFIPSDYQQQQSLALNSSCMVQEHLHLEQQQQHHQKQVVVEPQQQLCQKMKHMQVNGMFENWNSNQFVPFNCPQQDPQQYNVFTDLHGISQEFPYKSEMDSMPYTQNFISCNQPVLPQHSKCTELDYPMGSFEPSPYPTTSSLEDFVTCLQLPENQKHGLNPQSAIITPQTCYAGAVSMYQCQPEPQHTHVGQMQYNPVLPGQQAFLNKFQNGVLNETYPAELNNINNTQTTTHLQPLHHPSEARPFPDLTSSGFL
Assay type: cell-based
Parameters: U87 glioblastoma cells (ATCC) endogenously expressing AHR; host or cells: U87 glioblastoma cells, stably transfected with DRE-firefly luciferase and renilla reporter constructs only
Experimental: Transactivation Assay in Human Cell Line (In Vitro Assays 1 and 2)
Transactivation assays were carried out in U87 glioblastoma cells (ATCC) endogenously expressing AHR. In addition the cells were stably transfected with an AHR inducible firefly luciferase reporter gene construct that carried AHR-binding sites (DRE) in its promoter and a renilla reporter gene construct with constitutively active promoter. Kynurenic acid is an endogenous AHR activating ligand and was used to prestimulate test cells prior to testing the antagonistic properties of compounds.
In Vitro Assay 1: Antagonism in Human Cell Line
Cells in medium (tryptophan free RPMI, 1% FCS, 2 mM Glutamine) supplemented with 150 μM kynurenic acid were grown for 20 hours in absence (negative control) or presence of increasing concentrations of test compounds (typical dilutions: […], 0.25 nmol/L, 0.89 nmol/L; 3.1 nmol/L, 11 nmol/L, 38 nmol/L, 130 nmol/L, 470 nmol/L, 1.6 μmol/L, 5.7 μmol/L and 20 μmol/L in duplicates). As positive inhibition control cells supplemented with 150 μM kynurenic acid were incubated in presence of 5 μM Staurosporin. Normalization was done by positive and negative controls.
Firefly luciferase and Renilla activity was determined by the DualGlo Luciferase Assay System (Promega, #2920). Renilla activity was used to assess toxic effects of compounds.

| IC50 [nM] | Structure (SMILES) |
| --- | --- |
| 41.4 | C[C@@H](C[S+](C)[O-])NC(=O)c1cc(-c2ccc(C(F)(F)F)cc2)nn(-c2cnn(C)c2)c1=O (single isomer, unassigned) [Example 25] |
| 69.9 | O=C(N[C@@H]1CS(=O)(=O)C[C@@H]1O)c1cc(-c2ccc(C(F)(F)F)nc2)nn(-c2cccc(F)c2)c1=O (relative stereo) [Example 19, 2-(3-fluorophenyl)-N-[(cis)-4-hydroxy-1,1-dioxidotetrahydro-thiophen-3-yl]-3-oxo-6-[6-(trifluoromethyl)pyridin-3-yl]-2,3-dihydropyridazine-4-carboxamide] |
| 158 | Cn1cc(-n2nc(-c3ccc(C(F)(F)F)cc3)cc(C(=O)N[C@@H]3CS(=N)(=O)C[C@@H]3O)c2=O)cn1 (stereo partly drawn) [Example 47, N-[(cis)-4-hydroxy-1-imino-1-oxidotetrahydro-1H-1lambda4-thiophen-3-yl]-2-(1-methyl-1H-pyrazol-4-yl)-3-oxo-6-[4-(trifluoromethyl)phenyl]-2,3-dihydropyridazine-4-carboxamide] |
| 326 | CS(=O)(=O)CCNC(=O)c1cc(-c2ccc(Cl)cc2)nn(-c2cccc(F)c2)c1=O [Example 59, 6-(4-Chlorophenyl)-2-(3-fluorophenyl)-N-[2-(methylsulfonyl)ethyl]-3-oxo-2,3-dihydropyridazine-4-carboxamide] |
| 393 | C[S+]([O-])CCNC(=O)c1cc(-c2ccc(Cl)cc2)nn(-c2cccc(F)c2)c1=O (centres unmarked) [Example 51, 6-(4-Chlorophenyl)-2-(3-fluorophenyl)-N-[2-(methylsulfinyl)ethyl]-3-oxo-2,3-dihydropyridazine-4-carboxamide] |
| 6.99 | CSC[C@H](C)NC(=O)c1cc(-c2ccc(C(F)(F)F)cc2)nn(-c2cnn(C)c2)c1=O [Example 9, 2-(1-Methyl-1H-pyrazol-4-yl)-N-[(2S)-1-(methylsulfanyl)propan-2-yl]-3-oxo-6-[4-(trifluoromethyl)phenyl]-2,3-dihydropyridazine-4-carboxamide] |
| 140 | C[C@@H](CS(C)(=N)=O)NC(=O)c1cc(-c2ccc(Cl)cc2)nn(-c2cccc(F)c2)c1=O (single isomer, unassigned) [Example 8] |
| 26.4 | C[C@@H](C[S+](C)[O-])NC(=O)c1cc(-c2ccc(Cl)cc2)nn(-c2cnn(C)c2)c1=O (stereo partly drawn) [Example 49, 6-(4-Chlorophenyl)-2-(1-methyl-1H-pyrazol-4-yl)-N-[(2S)-1-(methylsulfinyl)propan-2-yl]-3-oxo-2,3-dihydropyridazine-4-carboxamide] |
| 54.8 | C[C@@H](CS(C)(=N)=O)NC(=O)c1cc(-c2ccc(C(F)(F)F)cc2)nn(-c2cnn(C)c2)c1=O (mixture of isomers) [Example 38, 2-(1-Methyl-1H-pyrazol-4-yl)-N-[(2S)-1-(S-methylsulfonimidoyl)propan-2-yl]-3-oxo-6-[4-(trifluoromethyl)phenyl]-2,3-dihydropyridazine-4-carboxamide] |
| 272 | O=C(N[C@@H]1C[S+]([O-])C[C@@H]1O)c1cc(-c2ccc(C(F)(F)F)cc2)nn(-c2cccnc2)c1=O (single isomer, unassigned) [Example 35, N-[(cis)-4-hydroxy-1-oxidotetrahydro-thiophen-3-yl]-3-oxo-2-(pyridin-3-yl)-6-[4-(trifluoromethyl)phenyl]-2,3-dihydropyridazine-4-carboxamide] |
| 52.6 | CSC[C@H](C)NC(=O)c1cc(-c2ccc(Cl)cc2)nn(-c2cccc(F)c2)c1=O [Example 1, 6-(4-Chlorophenyl)-2-(3-fluorophenyl)-N-[(2S)-1-(methylsulfanyl)propan-2-yl]-3-oxo-2,3-dihydropyridazine-4-carboxamide] |
| 145 | O=C(N[C@@H]1C[S+]([O-])C[C@@H]1O)c1cc(-c2ccc(Cl)cc2)nn(-c2cccc(F)c2)c1=O (single isomer, unassigned; (+)) [Example 31, (+)-6-(4-chlorophenyl)-2-(3-fluorophenyl)-N-[(cis)-4-hydroxy-1-oxidotetrahydro-thiophen-3-yl]-3-oxo-2,3-dihydropyridazine-4-carboxamide] |
| 133 | C[C@@H](CS(C)(=N)=O)NC(=O)c1cc(-c2ccc(C(F)(F)F)cc2)nn(-c2cnn(C)c2)c1=O (single isomer, unassigned) [Example 39] |
| 843 | CS(=N)(=O)CCNC(=O)c1cc(-c2ccc(Cl)cc2)nn(-c2cccc(F)c2)c1=O (single isomer, unassigned) [Example 53, 6-(4-Chlorophenyl)-2-(3-fluorophenyl)-N-[2-(S-methylsulfonimidoyl)ethyl]-3-oxo-2,3-dihydropyridazine-4-carboxamide] |
| 65.3 | O=C(N[C@H]1CS(=O)(=O)C[C@H]1O)c1cc(-c2ccc(Cl)cc2)nn(-c2cccc(F)c2)c1=O (single isomer, unassigned) [Example 56, 6-(4-Chlorophenyl)-2-(3-fluorophenyl)-N-[(cis)-4-hydroxy-1,1-dioxidotetrahydrothiophen-3-yl]-3-oxo-2,3-dihydropyridazine-4-carboxamide] |
| 40.2 | C[C@@H](C[S+](C)[O-])NC(=O)c1cc(-c2ccc(Cl)cc2)nn(-c2cccc(F)c2)c1=O (single isomer, unassigned) [Example 4] |
| 2.41 | O=C(N[C@@H]1CS(=O)(=O)C[C@@H]1O)c1cc(-c2ccc(C(F)(F)F)cc2)nn(-c2cnsc2)c1=O (relative stereo) [Example 10, N-[(cis)-4-hydroxy-1,1-dioxidotetrahydro-thiophen-3-yl]-3-oxo-2-(1,2-thiazol-4-yl)-6-[4-(trifluoromethyl)phenyl]-2,3-dihydropyridazine-4-carboxamdie] |
| 103 | N=S1(=O)C[C@H](O)[C@H](NC(=O)c2cc(-c3ccc(Cl)cc3)nn(-c3cccc(F)c3)c2=O)C1 (single isomer, unassigned) [Example 46, 6-(4-chlorophenyl)-2-(3-fluorophenyl)-N-[(cis)-4-hydroxy-1-imino-1-oxidotetrahydro-1H-1lambda4-thiophen-3-yl]-3-oxo-2,3-dihydropyridazine-4-carboxamide] |
| 16.2 | O=C(N[C@@H]1CS(=O)(=O)C[C@@H]1O)c1cc(-c2ccc(C(F)(F)F)cc2)nn(-c2cccnc2)c1=O (single isomer, unassigned) [Example 17, (+)-N-[(cis)-4-hydroxy-1,1-dioxidotetrahydro-thiophen-3-yl]-3-oxo-2-(pyridin-3-yl)-6-[4-(trifluoromethyl)phenyl]-2,3-dihydropyridazine-4-carboxamide] |
| 6.45 | O=C(N[C@@H]1CS(=O)(=O)C[C@@H]1O)c1cc(-c2ccc(C(F)(F)F)cc2)nn(-c2cccc(F)c2)c1=O (single isomer, unassigned) [Example 14, (+)-2-(3-fluorophenyl)-N-[(cis)-4-hydroxy-1,1-dioxidotetrahydro-thiophen-3-yl]-3-oxo-6-[4-(trifluoromethyl)phenyl]-2,3-dihydropyridazine-4-carboxamide] |
| 93.5 | O=C(N[C@@H]1C[S+]([O-])C[C@@H]1O)c1cc(-c2ccc(Cl)cc2)nn(-c2cccc(F)c2)c1=O (single isomer, unassigned; (+)) [Example 27, (+)-6-(4-chlorophenyl)-2-(3-fluorophenyl)-N-[(cis)-4-hydroxy-1-oxidotetrahydro-thiophen-3-yl]-3-oxo-2,3-dihydropyridazine-4-carboxamide] |
| 147 | C[C@@H](CS(C)(=O)=O)NC(=O)c1cc(-c2ccc(Cl)cc2)nn(-c2cccc(F)c2)c1=O [Example 2, 6-(4-Chlorophenyl)-2-(3-fluorophenyl)-N-[(2S)-1-(methylsulfonyl)propan-2-yl]-3-oxo-2,3-dihydropyridazine-4-carboxamide] |
| 145 | O=C(N[C@@H]1CCS(=O)(=O)C1)c1cc(-c2ccc(Cl)cc2)nn(-c2cccc(F)c2)c1=O (stereo in doubt) [Example 58, 6-(4-Chlorophenyl)-N-(1,1-dioxidotetrahydrothiophen-3-yl)-2-(3-fluorophenyl)-3-oxo-2,3-dihydropyridazine-4-carboxamide] |
